# Results published in ChEMBL document CHEMBL4265870, “Synthesis and biological evaluation of a new series of benzimidazole derivatives as antimicrobial, antiquorum-sensing and antitumor agents” (Eur J Med Chem, 2017).
# Calls of active or inactive are those of the source. No cut-off for these calls is given here.
# Key:
# [1] = tested on: HCT-116; assay: Cytotoxicity in human HCT116 cells assessed as reduction in cell viability by MTT assay; type: functional, cell-based
# [2] = tested on: Staphylococcus aureus; assay: Antimicrobial activity against Staphylococcus aureus by two fold serial dilution method; type: functional
# [3] = tested on: Escherichia coli; assay: Antimicrobial activity against Escherichia coli by two fold serial dilution method; type: functional
# [4] = tested on: Bacillus cereus; assay: Antimicrobial activity against Bacillus cereus by two fold serial dilution method; type: functional
# [5] = tested on: HepG2; assay: Cytotoxicity in human HepG2 cells assessed as reduction in cell viability by MTT assay; type: functional, cell-based
# [6] = tested on: Aspergillus fumigatus; assay: Antimicrobial activity against Aspergillus fumigatus 293 by two fold serial dilution method; type: functional; conditions: Af293
# [7] = tested on: MCF7; assay: Cytotoxicity in human MCF7 cells assessed as reduction in cell viability by MTT assay; type: functional, cell-based
# [8] = tested on: Chromobacterium violaceum; assay: Antiquorum-sensing activity against Chromobacterium violaceum ATCC 12472 assessed as reduction in violacein production at 5000 ug/ml a=; type: functional
# [9] = tested on: Calf thymus DNA; assay: Binding affinity to calf thymus DNA by TLC plate based assay; type: nucleic-acid assay; conditions: Bos taurus
# [10] = tested on: Ehrlich; assay: Antitumor activity against mouse EAC cells implanted in Swiss mouse assessed as increase in life span at 0.5 mg/mouse dosed for 9 days starting 1 day after tumor cell implantation relative to untreated control; type: functional
# [11] = tested on: Ehrlich; assay: Antitumor activity against mouse EAC cells implanted in Swiss mouse assessed as mouse survival time at 0.5 mg/mouse dosed for 9 days starting 1 day after tumor cell implantation (reference value: 14.5 days); type: functional
# [12] = tested on: Mus musculus; assay: Toxicity in mouse EAC cells implanted Swiss mouse assessed as hemoglobin level at 0.5 mg/mouse dosed for 9 days starting 1 day after tumor cell implantation (reference value: 8.15 g/dl); type: organism-based; conditions: in vivo
# [13] = tested on: Mus musculus; assay: Toxicity in mouse EAC cells implanted Swiss mouse assessed as RBC count at 0.5 mg/mouse dosed for 9 days starting 1 day after tumor cell implantation (reference value: 3.69 10^6/mm3)); type: organism-based; conditions: in vivo
# [14] = tested on: WI-38; assay: Cytotoxicity in human WI38 cells assessed as reduction in cell viability by MTT assay; type: cell-based
# [15] = tested on: Ehrlich; assay: Antitumor activity against mouse EAC cells implanted in Swiss mouse assessed as tumor volume at 0.5 mg/mouse dosed for 9 days starting 1 day after tumor cell implantation (reference value: 9.85 ml); type: functional
# [16] = tested on: Mus musculus; assay: Toxicity in mouse EAC cells implanted Swiss mouse assessed as WBC count at 0.5 mg/mouse dosed for 9 days starting 1 day after tumor cell implantation (reference value: 23.96 10^3/mm3)); type: organism-based; conditions: in vivo
# [17] = tested on: Ehrlich; assay: Antitumor activity against mouse EAC cells implanted in Swiss mouse assessed as viable cell count per 100 ul at 0.5 mg/mouse dosed for 9 days starting 1 day after tumor cell implantation (reference value: 83.2 x 10^6/100 ul); type: functional
Structure (SMILES),IC50 [1],MIC [2],MIC [3],MIC [4],IC50 [5],MIC [6],IC50 [7],diameter of the inhibition zone (DIZ) [8],Activity [9],ILS [10],MST [11],Activity [12],Activity [13],IC50 [14],Activity [15],Activity [16],Activity [17]
O=[N+]([O-])c1ccc2[nH]c(CNc3nc(-c4ccccc4)cs3)nc2c1,198 µM,> 2500 µg/mL,> 2500 µg/mL,> 2500 µg/mL,226 µM,1250 µg/mL,254 µM,6 mm,,,,,,,,,
COc1ccc2c(c1)CCC/C2=N\NCc1nc2ccccc2[nH]1,41 µM,1250 µg/mL,> 2500 µg/mL,> 2500 µg/mL,80 µM,> 2500 µg/mL,63 µM,<2 mm,,,,,,,,,
NS(=O)(=O)c1nnc(NCc2nc3ccccc3[nH]2)s1,156 µM,625 µg/mL,625 µg/mL,> 2500 µg/mL,162 µM,> 2500 µg/mL,228 µM,<2 mm,Active,,,,,,,,
Cc1c(NCc2nc3ccccc3[nH]2)c(=O)n(-c2ccccc2)n1C,38 µM,312 µg/mL,2500 µg/mL,1250 µg/mL,63 µM,625 µg/mL,53 µM,6 mm,Active,,,,,,,,
O=[N+]([O-])c1ccc2[nH]c(CNc3c([N+](=O)[O-])ccc4ncccc34)nc2c1,256 µM,2500 µg/mL,1250 µg/mL,312 µg/mL,265 µM,2500 µg/mL,274 µM,4 mm,Active,,,,,,,,
CC1=NN(Cc2nc3ccccc3[nH]2)C(=O)C1,42 µM,156 µg/mL,> 2500 µg/mL,1250 µg/mL,54 µM,312 µg/mL,62 µM,4 mm,Active,110.34%,31.5 days,11.47 g/dL,4.55 ×10⁶ /mm3,246 µM,4.16 mL,11.26 ×10³ /mm3,45.38 ×10⁶ No_unit
Cc1c(NCc2nc3cc([N+](=O)[O-])ccc3[nH]2)c(=O)n(-c2ccccc2)n1C,44 µM,625 µg/mL,2500 µg/mL,1250 µg/mL,93 µM,2500 µg/mL,78 µM,<2 mm,,,,,,,,,
CC[n+]1c(-c2ccccc2)c2cc(N)ccc2c2ccc(N)cc21,,,,,,,,,Active,,,,,,,,
O=[N+]([O-])c1ccc2ncccc2c1NCc1nc2ccccc2[nH]1,204 µM,1250 µg/mL,625 µg/mL,156 µg/mL,259 µM,1250 µg/mL,237 µM,8 mm,Active,,,,,,,,
CCOC(=O)c1c(NCc2nc3ccccc3[nH]2)sc2c1CCCCC2,31 µM,> 2500 µg/mL,> 2500 µg/mL,> 2500 µg/mL,43 µM,> 2500 µg/mL,40 µM,3 mm,inactive,168.9%,39 days,12.13 g/dL,4.89 ×10⁶ /mm3,58 µM,3.23 mL,9.11 ×10³ /mm3,29.65 ×10⁶ No_unit
OC(Cn1cncn1)(Cn1cncn1)c1ccc(F)cc1F [FLUCONAZOLE],,,,,,> 2500 µg/mL,,,,,,,,,,,
O=[N+]([O-])c1ccc2[nH]c(CN3CCN(c4ccc(F)cc4)CC3)nc2c1,14 µM,1250 µg/mL,2500 µg/mL,2500 µg/mL,22 µM,2500 µg/mL,15 µM,<2 mm,Active,206.98%,44.5 days,13.15 g/dL,5.36 ×10⁶ /mm3,298 µM,2.32 mL,7.34 ×10³ /mm3,23.54 ×10⁶ No_unit
CC1=NN(Cc2nc3cc([N+](=O)[O-])ccc3[nH]2)C(=O)C1,200 µM,2500 µg/mL,> 2500 µg/mL,1250 µg/mL,265 µM,625 µg/mL,281 µM,3 mm,,,,,,,,,
Fc1ccc2nc(NCc3nc4ccccc4[nH]3)sc2c1,238 µM,156 µg/mL,> 2500 µg/mL,> 2500 µg/mL,233 µM,1250 µg/mL,242 µM,11 mm,Active,,,,,,,,
O=[N+]([O-])c1ccc2[nH]c(CNc3nc4ccc(F)cc4s3)nc2c1,253 µM,> 2500 µg/mL,> 2500 µg/mL,> 2500 µg/mL,263 µM,1250 µg/mL,291 µM,6 mm,,,,,,,,,
CC1(C)S[C@@H]2[C@H](NC(=O)[C@H](N)c3ccccc3)C(=O)N2[C@H]1C(=O)O [AMPICILLIN],,312 µg/mL,19.5 µg/mL,1250 µg/mL,,,,,,,,,,,,,
Oc1cc(O)c2c(c1)O[C@H](c1ccc(O)c(O)c1)[C@@H](O)C2 [CIANIDANOL],,,,,,,,2 mm,,,,,,,,,
NS(=O)(=O)c1nnc(NCc2nc3cc([N+](=O)[O-])ccc3[nH]2)s1,176 µM,> 2500 µg/mL,> 2500 µg/mL,> 2500 µg/mL,184 µM,> 2500 µg/mL,230 µM,<2 mm,,,,,,,,,
O=C1c2ccccc2C(=O)N1NCc1nc2ccccc2[nH]1,31 µM,> 2500 µg/mL,> 2500 µg/mL,> 2500 µg/mL,32 µM,1250 µg/mL,37 µM,4 mm,Active,222.07%,46.7 days,13.21 g/dL,5.52 ×10⁶ /mm3,322 µM,2.15 mL,7.11 ×10³ /mm3,21.95 ×10⁶ No_unit
COc1ccc2c(c1)CCC/C2=N\NCc1nc2cc([N+](=O)[O-])ccc2[nH]1,45 µM,> 2500 µg/mL,> 2500 µg/mL,> 2500 µg/mL,96 µM,2500 µg/mL,78 µM,<2 mm,,,,,,,,,
O=c1[nH]cc(F)c(=O)[nH]1 [FLUOROURACIL],41 µM,,,,61 µM,,41.5 µM,,,237.93%,49 days,12.96 g/dL,5.21 ×10⁶ /mm3,51 µM,1.6 mL,8.86 ×10³ /mm3,20.17 ×10⁶ No_unit
